Reference: patent US20060217305A1, “Induction of tumor cell senescence by retinoid receptor agonists and antagonists” (Ordway Research Institute, Inc., priority 2005, published 2006)

Legend:
[1] = system: retinoid-inducible genes EPLIN, UBD, IGFBP3, TGFB1 and TRIM31 in MCF-7 cells (subline MCF-7 3′SS6); experiment: real-time RT-PCR (QPCR) of retinoid-inducible gene expression, 2 days treatment; format: cell-based, human; conditions: for Fold induction EPLIN / Fold induction IGFBP3 / Fold induction TGFBI / Fold induction TRIM31 / Fold induction UBD: 2 days, MCF-7
Text: The following compounds were obtained from Ligand Pharmaceuticals (San Diego, Calif.). LGD1550 is a pan-RAR agonist. LGD1268 is a pan-RXR agonist. LG100815 is a pan-RAR antagonist. LG101208 is a pan-RXR antagonist. The LG100815 compound is a specific RAR antagonist that binds to RAR, but fails to activate its Retinoic Acid Responsive Element (RARE)-dependent transcription transactivation function (see Lee et al, Mol. Cell Biol. 19: 1973-1980 (1999)). Also used was all-trans retinoic acid (RA), the most commonly used RAR agonist. To determine how these compounds affect the expression of retinoid-inducible growth inhibitory genes EPLIN, UBD, IGFBP3 and TGFB1, as well as TRIM31 gene that contains a putative RARE element in its promoter, MCF-7 cells (subline MCF-7 3′SS6) were treated with individual compounds or their combinations for 2 days, and RNA was extracted by standard procedures. In the initial assays, gene expression was analyzed by semi-quantitative reverse transcription-PCR (RT-PCR), as described in Dokmanovic et al., Cancer Biology & Therapy 1:24-27 (2002). In subsequent assays, the initial results were confirmed, expanded and quantitated by real-time RT-PCR (QPCR), using Applied BioSystems 7900HT real-time PCR instrument. β-actin was used as a normalization standard.
cDNA was prepared by reverse transcription with random primer using 4 μg total RNA. 5 μl SYBR Green PCR Master Mix (Applied Biosystems) was mixed with […] cDNA and 0.8 pmol of gene-specific primers and brought up to 10 μl with ultra pure H2O in 384-well optical plates. For amplification, reaction mixtures were heated for 2 min at 50° C. and 10 min at 95° C., followed by 40 cycles of two-step PCR consisting of 15 sec at 95° C. and 1 min at 60° C., to construct dissociation curves and verify that single PCR products were obtained. PCR products were also analyzed by gel electrophoresis to confirm that a single product of the expected size was amplified. […] The comparative CT method for relative quantitation of gene expression described by Applied Biosystems was used to determine expression levels for target genes. Experiments were carried out in triplicate for each data point. Sequence Detection Systems software version 2.1 (Applied Biosystems) and Microsoft Excel were used for data analysis.

[2] = system: DR5 RARE-containing promoter in MCF-7 cells; experiment: DR5-luciferase transient transfection assay (RARE-dependent transcription); format: cell-based, human; conditions: 100 nM, 24 hrs
Method: The assays were carried out in triplicate. RA is all-trans retinoic acid. LGD1550 is a pan-RAR agonist. LG100815 is a pan-RAR antagonist.
To confirm the ability of LG100815 to antagonize RARE-dependent induction of transcription analysis of firefly luciferase expression from a RARE-containing artificial promoter DR5 (Stratagene, catalog number 240119) was performed. Cells were plated to the density of 3×10^5 in P60 24 hrs before transient transfection. DR5 reporter plasmid (4 μg) was mixed with the SV40-driven-Renilla luciferase control plasmid (0.04 μg) and transfected using Lipofectamine Plus (Life Technologies/Invitrogen, Carlsbad, Calif.) as described by the manufacturer. 3 hrs after transfection, cells were rinsed three times with PBS, trypsinized and replated in a 12-well plate to the density of 5×10^4 cells per well. Retinoid agonists and antagonists were added 48 hrs later, and the luciferase assay was performed after another 24 hrs.

CC(/C=C/C=C(\C)c1cc(C(C)(C)C)cc(C(C)(C)C)c1)=C\C(=O)O [LGD1550]
ratio of the fold-induction of TGFB1 relative to TRIM31 ([1]; 100 nM): 0.12 | Fold induction EPLIN ([1]; 100 nM): 4.2 ± 0.8 fold | Fold induction IGFBP3 ([1]; 100 nM): 4.2 ± 2.0 fold | Fold induction TGFBI ([1]; 100 nM): 5.1 ± 0.6 fold | Fold induction TRIM31 ([1]; 100 nM): 42.7 ± 1.3 fold | Fold induction UBD ([1]; 100 nM): 9.5 ± 0.2 fold | ratio of the fold-induction of TGFB1 relative to TRIM31 ([1]; 1 μM): 0.12 | Fold induction EPLIN ([1]; 1 μM): 3.2 ± 0.3 fold | Fold induction IGFBP3 ([1]; 1 μM): 3.7 ± 0.7 fold | Fold induction TGFBI ([1]; 1 μM): 3.5 ± 0.4 fold | Fold induction TRIM31 ([1]; 1 μM): 30.3 ± 0.7 fold | Fold induction UBD ([1]; 1 μM): 7.7 ± 1.1 fold | ratio of the fold-induction of TGFB1 relative to TRIM31 ([1]; 10 μM): 0.12 | Fold induction EPLIN ([1]; 10 μM): 4.9 ± 2.5 fold | Fold induction IGFBP3 ([1]; 10 μM): 2.8 ± 1.6 fold | Fold induction TGFBI ([1]; 10 μM): 5.6 ± 0.1 fold | Fold induction TRIM31 ([1]; 10 μM): 45.0 ± 1.4 fold | Fold induction UBD ([1]; 10 μM): 7.3 ± 1.1 fold | effect on expression of the five genes (IGFBP3, EPLIN, UBD, TGFB1, TRIM31) ([1]; summary of Table 2, MCF-7): induced all five genes to approximately the same extent as RA | induction of luciferase expression from DR5 RARE-containing promoter [2]: approximately 50 fold
